Experimental data as given in ChEMBL document CHEMBL4390668, “Discovery and Structural Optimization of Acridones as Broad-Spectrum Antimalarials” (J Med Chem, 2019).
pIC50: −log10 of the molar value. The source made the active and inactive calls. The rule behind the calls is not given here.

Key:
[1] = tested on: Plasmodium falciparum; test: Antimalarial activity against drug-resistant Plasmodium falciparum Dd2 harboring M133I/A138T double mutant infected in human erythrocytes after 72 hrs by SYBR green 1-based fluorescence assay; type: functional, organism-based; conditions: Dd2, 72 h
[2] = tested on: Plasmodium falciparum; test: Antimalarial activity against drug-resistant Plasmodium falciparum 3D7 harboring A82T/V259L double mutant infected in human erythrocytes after 72 hrs by SYBR green 1-based fluorescence assay; type: functional, organism-based; conditions: 3D7, 72 h
[3] = Apparent volume of distribution in ICR mouse plasma at 80 mg/kg, po administered as single dose; type: ADME, organism-based; conditions: in vivo
[4] = Tmax in ICR mouse plasma at 80 mg/kg, po administered as single dose; type: ADME, organism-based
[5] = Apparent volume of distribution in ICR mouse liver at 80 mg/kg, po administered as single dose; type: ADME, organism-based; conditions: in vivo
[6] = tested on: Plasmodium falciparum; test: Antimalarial activity against multidrug-resistant Plasmodium falciparum Dd2 infected in human erythrocytes by SYBR green 1-based fluorescence assay; type: functional, organism-based
[7] = Apparent elimination half life in ICR mouse plasma at 80 mg/kg, po administered as single dose; type: ADME, organism-based; conditions: for half-life: ICR, plasma, read-out: betat1/2(app) (converted)
[8] = Half life in human liver microsomes at 1 uM by LC-MS analysis; type: ADME, Microsome
[9] = Toxicity in CF1 mouse infected with blood stage Plasmodium yoelii MR4 MRA-428 assessed as clinical toxicity at 80 mg/kg, po administered once daily via gavage for 4 days starting from for 4 days starting from 24 hrs post-infection and measured daily during compound dosing; type: organism-based; conditions: in vivo
[10] = Mutagenicity in Salmonella typhimurium TA100 assessed as increase in revertant colonies up to 10 uM in absence of S9 fraction by Ames test; type: toxicity; conditions: salmonella enterica subsp. enterica serovar typhimurium
[11] = tested on: Plasmodium falciparum; test: Inhibition of Plasmodium falciparum cytochrome b-c1
[12] = Cmax in ICR mouse liver at 80 mg/kg, po administered as single dose; type: ADME, organism-based; design: dose 80 mg/kg, route oral
[13] = Mutagenicity in Salmonella typhimurium TA100 assessed as increase in revertant colonies up to 10 uM in presence of S9 fraction by Ames test; type: toxicity, subcellular; conditions: salmonella enterica subsp. enterica serovar typhimurium
[14] = tested on: Plasmodium falciparum; test: Antimalarial activity against atovaquone-resistant Plasmodium falciparum Tm90-C2B infected in human erythrocytes by SYBR green 1-based fluorescence assay; type: functional, organism-based
[15] = tested on: Plasmodium berghei; test: (§1) Antimalarial activity against blood stage luciferase-expressing Plasmodium berghei ANKA 676m1cl1 sporozoites infected in C57BL/6 mouse assessed as suppression of parasitemia at 10 mg/kg, po pretreated for 1 day followed by parasite infection and subsequent compound dosing for 2 days measured up to 30 days post-infection by YOYO1 staining based flow cytometry; type: functional
[16] = AUC (0 to infinity) in ICR mouse plasma at 80 mg/kg, po administered as single dose; type: ADME, organism-based; design: dose 80 mg/kg, route oral, time infinity; conditions: for AUC(0-inf): ICR, plasma
[17] = Mutagenicity in Salmonella typhimurium TA98 assessed as increase in revertant colonies up to 10 uM in absence of S9 fraction by Ames test; type: toxicity; conditions: salmonella enterica subsp. enterica serovar typhimurium
[18] = Apparent clearance in ICR mouse plasma at 80 mg/kg, po administered as single dose; type: ADME, organism-based; conditions: read-out: CL(app) (converted)
[19] = AUC (0 to last) in ICR mouse liver at 80 mg/kg, po administered as single dose; type: ADME, organism-based; design: dose 80 mg/kg, route oral, time 0 - last
[20] = tested on: Plasmodium berghei; test: as §1, with “against liver” for “against blood”, “measured at 24” for “measured up”, “to 48 hrs” for “to 30 days”, “by luciferin-based real-time imaging analysis” for “by YOYO1 staining based flow cytometry”; type: functional
[21] = tested on: Plasmodium falciparum; test: Antimalarial activity against drug-resistant Plasmodium falciparum Dd2 harboring V259L mutant infected in human erythrocytes after 72 hrs by SYBR green 1-based fluorescence assay; type: functional, organism-based; conditions: Dd2, 72 h
[22] = Mutagenicity in Salmonella typhimurium TA98 assessed as increase in revertant colonies up to 10 uM in presence of S9 fraction by Ames test; type: toxicity, subcellular; conditions: salmonella enterica subsp. enterica serovar typhimurium
[23] = AUC (0 to last) in ICR mouse plasma at 80 mg/kg, po administered as single dose; type: ADME, organism-based; design: dose 80 mg/kg, route oral, time 0 - last
[24] = Cmax in ICR mouse plasma at 80 mg/kg, po administered as single dose; type: ADME, organism-based; design: dose 80 mg/kg, route oral
[25] = tested on: Plasmodium yoelii; test: (§2) Antimalarial activity against blood stage Plasmodium yoelii MR4 MRA-428 infected in CF1 mouse assessed as suppression of parasitemia administered once daily via oral gavage for 4 days starting from 24 hrs post-infection and measured post-last dose by Giemsa-staining based microscopic analysis; type: functional
[26] = AUC (0 to infinity) in ICR mouse liver at 80 mg/kg, po administered as single dose; type: ADME, organism-based; design: dose 80 mg/kg, route oral, time infinity
[27] = biological target: hERG (KCNH2) (Homo sapiens, UniProt Q12809); test: Inhibition of human ERG expressed in CHOK1 cells at 10 uM by automated patch clamp method relative to control; type: cell-based; conditions: CHO-K1 cells that express hERG
Sequence of hERG (KCNH2) (Q12809 whole entry): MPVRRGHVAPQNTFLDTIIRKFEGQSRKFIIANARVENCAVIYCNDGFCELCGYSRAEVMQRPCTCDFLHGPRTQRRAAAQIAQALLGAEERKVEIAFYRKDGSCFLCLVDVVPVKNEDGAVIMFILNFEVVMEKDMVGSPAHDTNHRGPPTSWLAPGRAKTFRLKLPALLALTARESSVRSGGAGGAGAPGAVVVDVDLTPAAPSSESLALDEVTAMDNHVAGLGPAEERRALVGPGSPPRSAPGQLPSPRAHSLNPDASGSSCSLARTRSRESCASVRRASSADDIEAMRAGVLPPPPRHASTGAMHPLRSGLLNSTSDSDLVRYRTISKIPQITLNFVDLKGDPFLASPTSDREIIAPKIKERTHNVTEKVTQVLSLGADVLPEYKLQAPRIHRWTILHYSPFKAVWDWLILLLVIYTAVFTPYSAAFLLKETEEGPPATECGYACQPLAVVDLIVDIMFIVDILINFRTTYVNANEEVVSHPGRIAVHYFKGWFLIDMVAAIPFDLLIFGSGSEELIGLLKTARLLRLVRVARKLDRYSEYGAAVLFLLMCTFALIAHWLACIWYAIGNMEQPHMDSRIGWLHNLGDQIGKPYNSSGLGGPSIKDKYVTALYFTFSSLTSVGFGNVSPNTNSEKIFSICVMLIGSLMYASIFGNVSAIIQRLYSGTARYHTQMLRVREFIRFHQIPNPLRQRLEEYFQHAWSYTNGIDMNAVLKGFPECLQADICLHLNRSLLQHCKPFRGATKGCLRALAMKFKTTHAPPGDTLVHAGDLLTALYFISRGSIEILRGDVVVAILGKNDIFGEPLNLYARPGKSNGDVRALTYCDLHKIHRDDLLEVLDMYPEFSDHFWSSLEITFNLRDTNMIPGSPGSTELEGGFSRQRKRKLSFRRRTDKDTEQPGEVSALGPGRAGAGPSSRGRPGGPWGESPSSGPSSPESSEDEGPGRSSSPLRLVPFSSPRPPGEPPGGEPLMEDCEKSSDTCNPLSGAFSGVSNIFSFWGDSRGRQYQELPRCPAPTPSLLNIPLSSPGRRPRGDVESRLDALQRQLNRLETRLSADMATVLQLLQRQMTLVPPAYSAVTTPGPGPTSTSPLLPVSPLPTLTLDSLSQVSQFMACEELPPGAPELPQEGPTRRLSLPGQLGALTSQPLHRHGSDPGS

[28] = Mean residence time in ICR mouse liver at 80 mg/kg, po administered as single dose; type: ADME, organism-based
[29] = Apparent elimination half life in ICR mouse liver at 80 mg/kg, po administered as single dose; type: ADME, organism-based; conditions: read-out: betat1/2(app) (converted)
[30] = Toxicity in CF1 mouse infected with blood stage Plasmodium yoelii MR4 MRA-428 assessed as behavioral changes at 80 mg/kg, po administered once daily via gavage for 4 days starting from for 4 days starting from 24 hrs post-infection and measured daily during compound dosing; type: organism-based; conditions: in vivo
[31] = tested on: Plasmodium yoelii; test: as §2, with “parasitemia at 80 mg/kg, po” for “parasitemia”, “via” for “via oral”, “at weekly intervals for 28 days” for “post-last dose”; type: functional
[32] = tested on: Plasmodium berghei; test: as §1, with “4” for “10”; type: functional
[33] = Tmax in ICR mouse liver at 80 mg/kg, po administered as single dose; type: ADME, organism-based
[34] = Mean residence time in ICR mouse plasma at 80 mg/kg, po administered as single dose; type: ADME, organism-based
[35] = tested on: Plasmodium falciparum; test: Antimalarial activity against multidrug-resistant Plasmodium falciparum 7G8 infected in human erythrocytes by SYBR green 1-based fluorescence assay; type: functional, organism-based
[36] = Half life in mouse liver microsomes at 1 uM by LC-MS analysis; type: ADME, Microsome
[37] = tested on: Plasmodium berghei; test: Antimalarial activity against luciferase-expressing Plasmodium berghei ANKA 676m1cl1 sporozoites infected in human HepG2A16 cells measured after 45 hrs by luciferase-luciferin based reporter assay; type: functional, organism-based; conditions: ANKA 676m1cl1, HepG2A16, 45 h
[38] = tested on: Plasmodium falciparum; test: Antimalarial activity against Plasmodium falciparum 3D7 infected in human erythrocytes after 72 hrs by SYBR green 1-based fluorescence assay; type: functional, organism-based; conditions: 3D7, 72 h
[39] = tested on: Plasmodium falciparum; test: Antimalarial activity against drug-resistant Plasmodium falciparum Dd2 harboring M133I mutant infected in human erythrocytes after 72 hrs by SYBR green 1-based fluorescence assay; type: functional, organism-based; conditions: Dd2, 72 h
[40] = tested on: Plasmodium falciparum; test: Antimalarial activity against chloroquine-sensitive Plasmodium falciparum D6 infected in human erythrocytes by SYBR green 1-based fluorescence assay; type: functional, organism-based
[41] = Selectivity index, ratio of IC50 for human HepG2 cells to IC50 for chloroquine-sensitive Plasmodium falciparum D6 infected in human erythrocytes; type: toxicity, cell-based; conditions: read-out: Ratio IC50
[42] = tested on: HepG2; test: Cytotoxicity against human HepG2 cells measured after 24 to 36 hrs by resazurin dye based fluorescence assay; type: cell-based

With CCCCN(CCCC)CCOc1ccc2c(=O)c3c(Cl)c(Cl)ccc3[nH]c2c1 the pIC50 [1] was 7.42, the pIC50 [2] was 7.24 and the Vz [3] was 223.865 L/kg. The Tmax ([4]; ICR, plasma, read-out: Tmax) was 2.75 h, the Vz [5] was 3.605 L/kg and the pIC50 [6] was 7.85 to 10.39. For the same molecule, the half-life [7] was 6 h, the half-life at 1 µM [8] was 0.2 h and the Activity [9] was “Non-Toxic”. For the same molecule, the Activity [10] was “Non-Toxic”, the inhibition [11] was “inactive” and the Cmax [12] was 21300 ng/mL. For the same molecule, the Activity [13] was “Non-Toxic”, the pIC50 [14] was 6.64 and the Activity [15] was 100%. The AUC(0-inf) [16] was 3240 ng·h/mL, the Activity [17] was “Non-Toxic” and the CL/F [18] was 431 mL/min/kg. It also gave an AUC(0-t) [19] of 168000 ng·h/mL, an Activity [20] of 100% and a pIC50 [21] of 6.85. For the same molecule, the Activity [22] was “Non-Toxic”, the AUC(0-t) [23] was 3050 ng·h/mL and the Cmax ([24]; ICR, plasma, read-out: Cmax) was 226 ng/mL. For the same molecule, the ED50 [25] was 1.03 mg/kg.day, the ED90 [25] was 1.64 mg/kg.day and the AUC(0-inf) [26] was 169000 ng·h/mL. The inhibition at 10 µM [27] was 57%, the MRT [28] was 10.1 h and the half-life [29] was 4.63 h. The Activity [30] was “Non-Toxic”, the Activity [31] was 100% and the Activity [32] was 100%. The Tmax [33] was 2.75 h, the MRT [34] was 6.96 h and the pIC50 [35] was 10.37. It also gave a half-life at 1 µM [36] of 0.35 h and a pIC50 [37] of 9.30.

Molecule Clc1ccc2c(N3CCN(CCCN4CCN(c5ccnc6cc(Cl)ccc56)CC4)CC3)ccnc2c1 [PIPERAQUINE] has a pIC50 [1] of 8.13, a pIC50 [38] of 8.14 and a pIC50 [2] of 8.30. The pIC50 [39] was 8.00, the inhibition [11] was “inactive” and the pIC50 [21] was 8.15.

CCCN(CCC)CCOc1ccc2c(=O)c3c(F)cc(F)cc3[nH]c2c1 gave a pIC50 [40] of 12.52, a pIC50 [1] of 9.07 and a pIC50 [38] of 9.52. It also gave a pIC50 [2] of 7.77, a Vz [3] of 657.604 L/kg and a Tmax ([4]; in vivo) of 7 h. The pIC50 [6] was 9.64 to 12.52, the “betat1/2(app)” value ([7]; in vivo) was 54.24 h and the half-life at 1 µM [8] was 0.267 h. The Activity [9] was “Non-Toxic”, the Activity [10] was “Non-Toxic” and the inhibition [11] was “inactive”. The Cmax [12] was 3930 ng/mL, the Activity [13] was “Non-Toxic” and the pIC50 [14] was 8.17. The Activity [15] was 100%, the AUC ([16]; in vivo) was 56485 ng·h/mL and the selectivity ratio [41] was over 100000. For the same molecule, the Activity [17] was “Non-Toxic”, the AUC(0-t) [19] was 63900 ng·h/mL and the Activity [20] was 100%. The pIC50 [21] was 8.26, the Activity [22] was “Non-Toxic” and the AUC(0-t) [23] was 7560 ng·h/mL. The Cmax ([24]; in vivo) was 99 ng/mL, the ED50 [25] was 1.12 mg/kg.day and the AUC(0-inf) [26] was 102000 ng·h/mL. The inhibition at 10 µM [27] was 65%, the MRT [28] was 8.9 h and the half-life [29] was 13.8 h. The Activity [30] was “Non-Toxic”, the Activity [31] was 100% and the Tmax [33] was 7 h. For the same molecule, the MRT [34] was 10.2 h, the pIC50 [35] was 12.52 and the pIC50 [42] was 4.37. For the same molecule, the half-life at 1 µM [36] was 0.25 h and the pIC50 [37] was 8.85.

Work on CCCN(CCC)CCCOc1ccc2c(=O)c3c(F)cc(F)cc3[nH]c2c1 yielded a pIC50 [40] of 9.46, a Vz [3] of 175.302 L/kg and a Tmax ([4]; ICR, plasma, read-out: Tmax) of 7.78 h. The pIC50 [6] was 9.31, the half-life [7] was 7.78 h and the half-life at 1 µM [8] was over 1 h. For the same molecule, the Activity [10] was “Non-Toxic”, the Cmax [12] was 19700 ng/mL and the Activity [13] was “Non-Toxic”. For the same molecule, the pIC50 [14] was 6.36, the Activity [15] was 100% and the AUC(0-inf) [16] was 5080 ng·h/mL. For the same molecule, the selectivity ratio [41] was 176000, the Activity [17] was “Non-Toxic” and the CL/F [18] was 265 mL/min/kg. For the same molecule, the AUC(0-t) [19] was 236000 ng·h/mL, the Activity [20] was 100% and the Activity [22] was “Non-Toxic”. It also gave an AUC(0-t) [23] of 3430 ng·h/mL, a Cmax ([24]; ICR, plasma, read-out: Cmax) of 526 ng/mL and an ED50 [25] of 0.6 mg/kg.day. It also gave an ED90 [25] of 2.48 mg/kg.day, an AUC(0-inf) [26] of 237000 ng·h/mL and an inhibition at 10 µM [27] of 102%. It also gave an MRT [28] of 13.3 h, a half-life [29] of 6.59 h and a Tmax [33] of 4 h. It also gave an MRT [34] of 11.8 h, a pIC50 [35] of 8.68 and a pIC50 [42] of 4.21. It also gave a half-life at 1 µM [36] of over 1 h and a pIC50 [37] of 8.47.
